Columns and labels:
human P2X7 = human P2X7 (Homo sapiens (Human), UniProt Q99572); assay: Human P2X7 functional assay (Ca2+ influx, Fluo-4, FDSS); type: cell-based; details: antagonistic activity with respect to the human P2X7 receptor; BzATP final concentration 80 microM
How it was run: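 Ca2+ influx was triggered with BzATP (80 μM final) after a 10-min room-temperature compound preincubation and monitored with Fluo-4 (ex 480/em 540 nm) on FDSS. The cells were HEK293 stably carrying FLAG-tagged human P2X7. Duplicate-averaged 7-point dose-responses gave IC50s.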

rat P2X7 = rat P2X7 (Rattus norvegicus (Rat), UniProt Q64663); assay: Rat P2X7 functional assay (Ca2+ influx, Fluo-4, FDSS); type: cell-based; details: HEK293 cells stably expressing rat P2X7; BzATP final 10 microM; 7-point dose-response; read-out: Antagonistic activities with respect to the rat P2X7 receptor (IC50)
How it was run: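 IC50 derived from 7-point dose-response in duplicate, measuring inhibition of BzATP-evoked (final 10 microM) intracellular Ca2+ increase by Fluo-4 fluorescence on FDSS. Rat P2X7-HEK293 cells were exposed to compound for 10 min in the dark beforehand.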

Sequence of human P2X7 (Q99572 whole entry): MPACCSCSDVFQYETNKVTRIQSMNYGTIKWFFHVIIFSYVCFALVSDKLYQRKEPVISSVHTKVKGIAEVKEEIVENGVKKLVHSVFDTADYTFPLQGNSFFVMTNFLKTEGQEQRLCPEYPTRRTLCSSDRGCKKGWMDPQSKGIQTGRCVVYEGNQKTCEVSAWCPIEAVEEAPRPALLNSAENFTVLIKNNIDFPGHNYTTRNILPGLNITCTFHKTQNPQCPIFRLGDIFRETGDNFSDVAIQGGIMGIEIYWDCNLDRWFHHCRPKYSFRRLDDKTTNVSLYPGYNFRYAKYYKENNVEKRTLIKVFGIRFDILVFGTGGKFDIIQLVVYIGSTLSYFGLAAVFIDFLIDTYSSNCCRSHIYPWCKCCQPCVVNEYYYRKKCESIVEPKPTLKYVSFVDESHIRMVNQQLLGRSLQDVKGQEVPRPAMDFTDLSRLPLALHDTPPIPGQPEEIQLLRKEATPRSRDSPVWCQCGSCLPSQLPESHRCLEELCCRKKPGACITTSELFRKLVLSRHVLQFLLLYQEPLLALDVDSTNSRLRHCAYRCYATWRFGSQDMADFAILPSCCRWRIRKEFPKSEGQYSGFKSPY
Sequence of rat P2X7 (Q64663 whole entry): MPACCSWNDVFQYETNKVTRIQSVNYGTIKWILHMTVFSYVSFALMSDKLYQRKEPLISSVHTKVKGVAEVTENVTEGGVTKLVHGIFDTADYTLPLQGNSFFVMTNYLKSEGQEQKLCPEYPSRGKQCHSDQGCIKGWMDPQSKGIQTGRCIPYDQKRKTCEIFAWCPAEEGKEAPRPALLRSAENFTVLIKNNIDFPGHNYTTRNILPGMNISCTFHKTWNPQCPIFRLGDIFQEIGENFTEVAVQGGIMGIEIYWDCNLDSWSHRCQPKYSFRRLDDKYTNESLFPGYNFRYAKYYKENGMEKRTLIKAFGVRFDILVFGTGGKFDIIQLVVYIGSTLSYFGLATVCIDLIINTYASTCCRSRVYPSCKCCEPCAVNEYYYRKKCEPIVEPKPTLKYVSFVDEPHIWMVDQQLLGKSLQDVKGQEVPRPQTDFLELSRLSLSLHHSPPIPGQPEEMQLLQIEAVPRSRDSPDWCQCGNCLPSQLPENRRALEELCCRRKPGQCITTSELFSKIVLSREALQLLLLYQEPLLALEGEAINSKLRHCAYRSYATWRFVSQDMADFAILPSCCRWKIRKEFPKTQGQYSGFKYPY

Row | IC50 (human P2X7) [nM] | IC50 (rat P2X7) [nM] | Structure (SMILES)
1 | < 50 | < 1000 | O=C(NCc1c(F)cc(F)cc1F)[C@]1(F)CC[C@H](O)c2ncccc21 [Example 180, (5S,8S)-5-fluoro-8-hydroxy-N-(2,4,6-trifluorobenzyl)-5,6,7,8-tetrahydroquinoline-5-carboxamide]
2 | < 50 | < 1000 | Cc1cc(Cl)cc(Cl)c1CNC(=O)C1CC(O)c2ncccc21 (centres unmarked) [Example 26, N-(2,4-dichloro-6-methyl-benzyl)-7-hydroxy-6,7-dihydro-5H-cyclopenta[b] pyridine-5-carboxamide]
3 | < 50 | < 1000 | O=C(NCc1ccc(Cl)cc1Cl)[C@]1(F)CCC(S(=O)(=O)CCO)c2ncccc21 (stereo partly drawn) [Example 351, (5S)-N-(2,4-clichlorebenzyl)-5-fluoro-8-((2-hydroxyethyl)sulfenyl)-5,6,7,8-letrahydroquineline-5-carboxamide]
4 | < 50 | < 1000 | O=C(NCc1cccc(Cl)c1Cl)C1(F)CCC(O)c2ncccc21 (centres unmarked) [Example 21, N-(2,3-dichlorobenzyl)-5-fluoro-8-hydroxy-5,6,7,8-tetrahydroquinoline-5-carboxamide]
5 | 50 to 100 | < 1000 | O=C(NCc1c(F)cc(Cl)cc1F)[C@]1(F)CC[C@@](O)(CO)c2ncccc21 [Example 324, (5S,8S)-N-(4-chloro-2,6-difluorobenzyl)-5-fluoro-8-hydroxy-8-(hydroxymethyl)-5,6,7,8-tetrahydroquinoline-5-carboxamide]
6 | < 50 | < 1000 | O=C(NCc1ccc(F)c(F)c1F)[C@@H]1CC[C@H](O)c2ncccc21 [Example 72, (5R,8S)-8-hydroxy-N-(2,3,4-trifluorobenzyl)-5,6,7,8-tetrahydroquinoline-5-carboxamide]
7 | < 50 | < 1000 | O=C(NCc1ccc(Cl)cc1Cl)C1(F)CC(O)c2ncccc21 (centres unmarked) [Example 29, N-(2,4-dichlorobenzyl)-5-fluoro-7-hydroxy-6,7-dihydro-5H-cyclopenta[b]pyridine-5-carboxamide]
8 | < 50 | < 1000 | C[C@]1(O)CC[C@@](F)(C(=O)NCc2ccc(F)c(F)c2F)c2cccnc21 [Example 258, (5S,8S)-5-fluoro-8-hydroxy-8-methyl-N-(2,3,4-trifluorobenzyl)-5,6,7,8-tetrahydroquinoline-5-carboxamide]
9 | < 50 | < 1000 | O=C(NCc1cccc(Cl)c1F)[C@]1(F)CC[C@H](O)c2ncccc21 [Example 190, (5S,8S)-N-(3-chloro-2-fluorobenzyl)-5-fluoro-8-hydroxy-5,6,7,8-tetrahydroquinoline-5-carboxamide]
10 | < 50 | < 1000 | N#CC[C@]1(O)CC[C@@](F)(C(=O)NCc2ccc(Cl)cc2Cl)c2cccnc21 [Example 280, (5S,8R)-8-(cyanomethyl)-N-(2,4-dichlorobenzyl)-5-fluoro-8-hydroxy-5,6,7,8-tetrahydroquinoline-5-carboxamide]
11 | 101 to 300 | < 1000 | N[C@@]1(CO)CC[C@@](F)(C(=O)NCc2ccc(Cl)cc2Cl)c2cccnc21 (relative stereo) [Example 60, (5S*,8S*)-8-amino-N-(2,4-dichloro-benzyl)-5-fluoro-8-(hydroxymethyl)-5,6,7,8-tetrahydroquinoline-5-carboxamide]
12 | < 50 | < 1000 | CSC[C@]1(O)CC[C@@](F)(C(=O)NCc2ccc(Cl)cc2Cl)c2cccnc21 [Example 287, (5S,8S)-N-(2,4-dichlorobenzyl)-5-fluoro-8-hydroxy-8 ((methylthio)methyl)-5,6,7,8-tetrahydroquinoline-5-carboxamide]
13 | < 50 | < 1000 | O=C(NCc1c(Cl)cc(C(F)(F)F)cc1Cl)[C@]1(F)CC[C@H](O)c2ncccc21 [Example 148, (5S,8S)-N-(2,6-dichloro-4-(trifluoromethyl)benzyl)-5-fluoro-8-hydroxy-5,6,7,8-tetrahydroquinoline-5-carboxamide]
14 | < 50 | < 1000 | O=C(NCc1ncc(Cl)cc1Cl)[C@]1(F)CC[C@H](O)c2ncccc21 [Example 177, (5S,8S)-N-((3,5-dichloropyridin-2-yl)methyl)-5-fluoro-8-hydroxy-5,6,7,8-tetrahydroquinoline-5-carboxamide]
15 | < 50 | < 1000 | O=C1CC[C@@](F)(C(=O)NCc2ccc(Cl)cc2Cl)c2cccnc21 [Example 248, (S)-N-(2,4-dichloro-benzyl)-5-fluoro-8-oxo-5,6,7,8-tetrahydroquinoline-5-carboxamide]
16 | < 50 | < 1000 | Cc1cc(Cl)cc(Cl)c1CNC(=O)[C@H]1CC[C@@H](O)c2ncccc21 [Example 85, (5S,8R)-N-(2,4-dichloro-6-methylbenzyl)-8-hy-droxy-5,6,7,8-tetrahydro-quinoline-5-carboxamide]

Row | IC50 (human P2X7) [nM] | IC50 (rat P2X7) [nM] | Structure (SMILES)
17 | < 50 | < 1000 | O=C(NCc1ccc(F)c(F)c1Cl)[C@H]1CC[C@H](O)c2ncccc21 [Example 81, (5S,8S)-N-(2-chloro-3,4-difluorobenzyl)-8-hy-droxy-5,6,7,8-tetrahydro-auinoline-5-carboxamide]
18 | < 50 | < 1000 | C[C@]1(O)CC[C@@](F)(C(=O)NCc2ccc(F)c(Cl)c2F)c2cccnc21 [Example 268, (5S,8S)-N-(3-chloro-2,4-difluorobenzyl)-5-fluoro-8-hydroxy-8-methyl-5,6,7,8-tetrahydroquinoline-5-carboxamide]
19 | < 50 | < 1000 | Cc1ccc(F)c(CNC(=O)[C@]2(F)CC[C@H](O)c3ncccc32)c1Cl [Example 142, (5S,8S)-N-(2-chloro-6-fluoro-3-methylbenzyl)-5-fluoro-8-hydroxy-5,6,7,8-tetrahydroquinoline-5-carboxamide]
20 | < 50 | < 1000 | O=C(NCc1ccc(F)cc1Cl)[C@]1(F)CC[C@@](O)(CN2CC(O)C2)c2ncccc21 (relative stereo) [Example 52, (5S*,8R*)-N-(2-chloro-4-fluorobenzyl)-5-fluoro-8-hy-droxy-8-((3-hydroxy-azetidin-1-yl)methyl)-5,6,7,8-tetrahydro-quinoline-5-carboxamide]
21 | < 50 | < 1000 | O=C1CCC(F)(C(=O)NCc2c(Cl)cc(Cl)cc2CO)c2cccnc21 (centres unmarked) [Example 14, N-(2,4-dichloro-6-(hydroxymethyl)benzyl)-5-fluoro-8-oxo-5,6,7,8-tetrahydro-quinoline-5-carboxamide]
22 | < 50 | < 1000 | O=C(NCc1ccc(Cl)cc1Cl)[C@]1(F)CC[C@H](O)c2ncccc21 [Example 133, (5S,8S)—N-(2,4-dichlorobenzyl)-5-fluoro-8-hydroxy-5,6,7,8-tetrahydroquinoline-5-carb oxamide]
23 | 50 to 100 | < 1000 | O=C(NCc1ccc(F)cc1Cl)[C@]1(F)CC[C@@](O)(CS(=O)(=O)CCO)c2ncccc21 [Example 301, (5S,8S)-N-(2-chloro-4-fluorobenzyl)-5-fluoro-8-hydroxy-8-(((2-hydroxyethyl)sulfonyl)methyl)-5,6,7,8-tetrahydroquinoline-5-carboxamide]
24 | 101 to 300 | < 1000 | O=C(NCc1ccc(Cl)cc1Cl)C1(F)CC(O)(CO)c2ncccc21 (centres unmarked) [Example 38, N-(2,4-dichlorobenzyl)-5-fluoro-7-hydroxy-7-(hydroxymethyl)-6,7-dihydro-5H-cyclopenta[b]pyridine-5-carboxamide]
25 | 50 to 100 | < 1000 | O=C(NCc1ccc(F)cc1F)[C@]1(F)CC[C@H](OCCO)c2ncccc21 [Example 347, (5S,8S)-N-(2,4-difluorobenzyl)-5-fluoro-8-(2-hydroxyethoxy)-5,6,7,8-tetrahydroquinoline-5-carboxamide]
26 | < 50 | < 1000 | O=C(NCc1ccc(F)cc1Cl)[C@]1(F)CC[C@@](O)(CF)c2ncccc21 [Example 286, (5S,8S)-N-(2-chloro-4-fluorobenzyl)-5-fluoro-8-(fluoromethyl)-8-hydroxy-5,6,7,8-tetrahydroquinoline-5-carboxamide]
27 | 101 to 300 | < 1000 | O=C(NCc1ccc(Cl)c(F)c1)[C@]1(F)CC[C@H](O)c2ncccc21 [Example 206, (5S,8S)-N-(4-chloro-3-fluorobenzyl)-5-fluoro-8-hydroxy-5,6,7,8-tetrahydroquinoline-5-carboxamide]
28 | < 50 | < 1000 | O=C(NCc1c(F)cc(Cl)cc1Cl)[C@@H]1CC[C@H](O)c2ncccc21 [Example 70, (5R,8S)-N-(2,4-dichloro-6-fluorobenzyl)-8-hy-droxy-5,6,7,8-tetrahydro-quinoline-5-carboxamide]
29 | < 50 | < 1000 | O=C1CC[C@@](F)(C(=O)NCc2c(F)cc(Cl)cc2Cl)c2cccnc21 [Example 251, (S)-N-(2,4-dichloro-6-fluorobenzyl)-5-fluoro-8-oxo-5,6,7,8-tetrahydro-quinoline-5-carboxamide]
30 | < 50 | < 1000 | CO[C@H]1CC[C@@](F)(C(=O)NCc2ccc(F)c(F)c2F)c2cccnc21 [Example 339, (5S,8S)-5-fluoro-8-methoxy-N-(2,3,4-trifluorobenzyl)-5,6,7,8-tetrahydroquinoline-5-carboxamide]
31 | < 50 | < 1000 | C[C@]1(O)CC[C@@](F)(C(=O)NCc2c(F)cc(Cl)cc2F)c2cccnc21 [Example 269, (5S,8S)-N-(4-chloro-2,6-difluorobenzyl)-5-fluoro-8-hydroxy-8-methyl-5,6,7,8-tetrahydroquinoline-5-carboxamide]

— US11077100B2, “Tetrahydroquinoline derivatives as P2X7 receptor antagonists” (RaQualia Pharma Inc., priority 2017, dated 2021)
